Laboratory results taken from US10889553B2, “Asymmetric triazole benzamide derivatives and the compositions and methods of treatment regarding the same” (NysnoBio Ireland DAC, priority 2017, dated 2021).

Experiments:
H292 (lung) = test: Cancer cell proliferation assay (acid phosphatase); type: cell-based; conditions: Homo sapiens, NCI-H292; Table 6C, data of FIG. 2
Procedure, shortened: (§1)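 Seed 4×10^4 cells/ml, overnight 37° C./5% CO2; add compound (varying conc., triplicate); incubate 72 hrs; wash PBS; acid phosphatase substrate pH 5.5, 2 h; stop NaOH; read 405/620 nm; % inhibition vs DMSO.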

Ovarian (OAW42) = test: Cancer cell proliferation assay (acid phosphatase); type: cell-based; conditions: Homo sapiens, OAW-42
Procedure, shortened: as §1

[1] = test system: S-HeLa stably expressing a YFP-Parkin fusion protein; test: Mitophagy cellular assay; type: cell-based; conditions: YFP-Parkin HeLa cells, compound with 6 μM CCCP, Tomm20 negative cells (FIG. 4)
Description: The mitophagy cellular assay was performed as follows:
S-HeLa stably expressing a YFP-Parkin fusion protein were utilised in high content screening assays to assess Parkin-dependent endpoints. 4000 cells were seeded in each well of a 96 well plate (Perkin Elmer ViewPlate-96 F TC, cat. N. 6005182) and left to grow for 24 hours. Cells were then incubated with vehicle (DMSO) or increasing concentrations of compound (1, 2.5, 5, 10 μM) for 1 hour prior to adding 6 μM carbonyl cyanide m-chlorophenyl hydrazone (CCCP), each condition run in replicate of three. After 20 hours, the cells were processed for immunofluorescence.
Samples were fixed in 4% PFA for 25 minutes RT and permeabilized with PBS 0.1% Triton-X100 for 3 minutes on ice, blocked with PBS 3% BSA, 0.3% Triton-X100 for 2 hours RT, followed by overnight incubation with primary antibody at 4° C. […] 18 images were acquired for each well using the following combination of excitation/emission filters: Hoechst33342 was excited through a 350/50 nm band pass filter and fluorescence intensity was collected through a 460/30 band pass filter. YFP was excited through a 500/20 nm band pass filter and fluorescence intensity was collected through a 540/35 band pass filter. DyLight 649 was excited through a 640/30 nm band pass filter and fluorescence intensity was collected through 700/75 band pass filter. […]

CB1 (h) = CB1 (h) (Homo sapiens, UniProt P21554); test: Selectivity screen, radioligand displacement; type: binding; conditions: read-out: % Inhib CB1 (h)
CB1 (h), sequence (P21554 whole entry): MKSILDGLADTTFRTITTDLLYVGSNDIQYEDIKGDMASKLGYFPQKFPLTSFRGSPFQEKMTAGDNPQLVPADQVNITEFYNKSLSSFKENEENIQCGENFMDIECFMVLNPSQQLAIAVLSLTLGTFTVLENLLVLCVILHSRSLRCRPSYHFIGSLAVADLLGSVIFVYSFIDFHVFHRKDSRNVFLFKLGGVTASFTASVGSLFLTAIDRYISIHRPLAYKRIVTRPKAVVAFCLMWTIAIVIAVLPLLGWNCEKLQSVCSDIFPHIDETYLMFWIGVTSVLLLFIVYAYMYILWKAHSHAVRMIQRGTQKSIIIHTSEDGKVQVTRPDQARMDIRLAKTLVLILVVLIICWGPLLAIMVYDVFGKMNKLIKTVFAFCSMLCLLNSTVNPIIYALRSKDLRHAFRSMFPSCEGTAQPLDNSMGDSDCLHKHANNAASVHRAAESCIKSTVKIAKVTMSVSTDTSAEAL
Excerpt: (§2) If the % inhibition is less than 50%, the test compounds is consider to have no effect.

COX2(h) = COX2(h) (Homo sapiens, UniProt P35354); test: Selectivity screen, radioligand displacement; type: binding; conditions: read-out: % Inhib COX2(h)
COX2(h), sequence (P35354 18-604): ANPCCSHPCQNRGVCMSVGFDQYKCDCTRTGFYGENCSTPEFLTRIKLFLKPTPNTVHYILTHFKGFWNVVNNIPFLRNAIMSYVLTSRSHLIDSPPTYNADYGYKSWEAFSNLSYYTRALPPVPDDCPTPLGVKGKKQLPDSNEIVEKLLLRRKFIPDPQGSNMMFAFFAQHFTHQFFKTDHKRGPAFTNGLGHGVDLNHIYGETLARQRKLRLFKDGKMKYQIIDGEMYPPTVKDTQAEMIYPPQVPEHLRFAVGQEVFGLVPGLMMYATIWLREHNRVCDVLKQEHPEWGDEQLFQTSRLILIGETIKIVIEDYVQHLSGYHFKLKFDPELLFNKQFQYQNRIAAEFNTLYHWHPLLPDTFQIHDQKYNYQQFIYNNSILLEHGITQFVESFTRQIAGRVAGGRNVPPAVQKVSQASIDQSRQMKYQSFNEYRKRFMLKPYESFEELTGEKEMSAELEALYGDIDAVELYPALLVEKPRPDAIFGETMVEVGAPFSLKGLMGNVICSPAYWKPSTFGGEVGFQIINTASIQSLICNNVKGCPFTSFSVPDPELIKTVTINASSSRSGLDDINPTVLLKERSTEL
Excerpt: as §2

D2S (h) = D2S (h) (Homo sapiens, UniProt P14416); test: Selectivity screen, radioligand displacement; type: binding; conditions: read-out: % Inhib D2S (h)
D2S (h), sequence (P14416 1-414 isoform P14416-2): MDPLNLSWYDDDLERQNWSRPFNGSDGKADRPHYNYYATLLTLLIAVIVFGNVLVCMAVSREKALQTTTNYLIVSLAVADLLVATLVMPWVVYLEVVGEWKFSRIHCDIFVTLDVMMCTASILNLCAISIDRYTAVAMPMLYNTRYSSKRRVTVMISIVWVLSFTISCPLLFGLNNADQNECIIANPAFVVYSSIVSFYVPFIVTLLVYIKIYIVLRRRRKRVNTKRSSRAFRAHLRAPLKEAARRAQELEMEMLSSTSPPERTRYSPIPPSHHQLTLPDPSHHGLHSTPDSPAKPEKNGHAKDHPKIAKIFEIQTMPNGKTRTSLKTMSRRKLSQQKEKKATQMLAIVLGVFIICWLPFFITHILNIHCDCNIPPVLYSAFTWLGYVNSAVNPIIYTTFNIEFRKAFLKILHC
Excerpt: as §2

H2 (h) = H2 (h) (Homo sapiens, UniProt P25021); test: Selectivity screen, radioligand displacement; type: binding; conditions: read-out: % Inhib H2 (h)
H2 (h), sequence (P25021 whole entry): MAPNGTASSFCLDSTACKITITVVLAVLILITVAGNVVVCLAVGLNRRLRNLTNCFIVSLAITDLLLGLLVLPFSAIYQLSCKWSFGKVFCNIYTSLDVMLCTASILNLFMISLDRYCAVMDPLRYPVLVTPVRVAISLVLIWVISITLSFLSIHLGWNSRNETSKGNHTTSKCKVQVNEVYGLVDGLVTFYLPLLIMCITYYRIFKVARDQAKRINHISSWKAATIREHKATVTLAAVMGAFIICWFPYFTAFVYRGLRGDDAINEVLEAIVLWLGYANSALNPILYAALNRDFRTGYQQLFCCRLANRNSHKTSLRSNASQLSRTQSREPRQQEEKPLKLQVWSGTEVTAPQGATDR
Excerpt: as §2

NA+ Channel (Site2) = test: Selectivity screen, radioligand displacement; type: binding; conditions: Compound 42 at 10 μM
Excerpt: as §2

alpha 1A (h) = alpha 1A (h) (Homo sapiens, UniProt P35348); test: Selectivity screen, radioligand displacement; type: binding; conditions: read-out: % Inhib alpha 1A (h)
alpha 1A (h), sequence (P35348 whole entry): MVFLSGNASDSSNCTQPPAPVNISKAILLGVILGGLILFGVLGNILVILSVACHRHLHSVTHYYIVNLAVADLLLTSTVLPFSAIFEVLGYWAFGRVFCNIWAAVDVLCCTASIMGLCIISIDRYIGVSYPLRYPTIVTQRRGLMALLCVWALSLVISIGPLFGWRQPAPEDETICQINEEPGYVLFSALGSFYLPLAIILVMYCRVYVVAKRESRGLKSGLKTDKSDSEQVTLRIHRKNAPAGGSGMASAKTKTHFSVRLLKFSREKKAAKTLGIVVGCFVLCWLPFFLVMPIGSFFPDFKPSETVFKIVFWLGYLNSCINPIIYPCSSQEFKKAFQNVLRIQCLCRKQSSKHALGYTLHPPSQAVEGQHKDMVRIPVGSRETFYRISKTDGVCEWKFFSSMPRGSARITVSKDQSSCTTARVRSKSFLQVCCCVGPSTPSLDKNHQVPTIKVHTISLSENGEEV
Excerpt: as §2

delta (DOP) (h) = delta (DOP) (h) (Homo sapiens, UniProt P41143); test: Selectivity screen, radioligand displacement; type: binding; conditions: read-out: % Inhib delta (DOP) (h)
delta (DOP) (h), sequence (P41143 whole entry): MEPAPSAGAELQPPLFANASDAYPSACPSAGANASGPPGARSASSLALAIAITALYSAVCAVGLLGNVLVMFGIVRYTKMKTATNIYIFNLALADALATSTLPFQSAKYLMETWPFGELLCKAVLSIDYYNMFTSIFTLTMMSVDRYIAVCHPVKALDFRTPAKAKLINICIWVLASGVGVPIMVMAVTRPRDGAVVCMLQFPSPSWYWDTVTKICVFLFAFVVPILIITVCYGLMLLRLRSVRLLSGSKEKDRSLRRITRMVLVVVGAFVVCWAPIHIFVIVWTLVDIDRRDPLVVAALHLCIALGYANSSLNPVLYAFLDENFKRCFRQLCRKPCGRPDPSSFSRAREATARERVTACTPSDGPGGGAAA
Excerpt: as §2

CYP2D6 = CYP2D6 (Homo sapiens, UniProt P10635); test: CYP inhibition assay; type: in vitro ADME; conditions: read-out: % Inhibition at 30 μM CYP 2D6
CYP2D6, sequence (P10635 whole entry): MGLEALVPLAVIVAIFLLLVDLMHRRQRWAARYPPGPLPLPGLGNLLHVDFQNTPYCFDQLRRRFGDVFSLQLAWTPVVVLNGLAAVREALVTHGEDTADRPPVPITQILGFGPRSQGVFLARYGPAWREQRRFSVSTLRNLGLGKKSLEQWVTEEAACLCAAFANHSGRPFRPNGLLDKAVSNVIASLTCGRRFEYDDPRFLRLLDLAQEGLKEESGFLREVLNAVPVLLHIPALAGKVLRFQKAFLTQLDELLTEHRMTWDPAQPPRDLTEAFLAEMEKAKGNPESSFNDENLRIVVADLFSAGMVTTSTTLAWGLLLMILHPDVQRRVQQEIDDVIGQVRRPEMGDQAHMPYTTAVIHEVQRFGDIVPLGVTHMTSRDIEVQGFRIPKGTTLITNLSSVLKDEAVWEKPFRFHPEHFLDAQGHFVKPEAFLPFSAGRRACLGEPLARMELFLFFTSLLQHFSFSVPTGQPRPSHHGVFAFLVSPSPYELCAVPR

Cc1ccccc1C(=O)Nc1nc(NC(=O)c2ccccc2C)n(-c2ccc(OC(F)(F)F)cc2)n1 [Compound 42, N,N′-(1-(4-(trifluoromethoxy)phenyl)-1H-1,2,4-triazole-3,5-diyl)bis(2-methylbenzamide)]
IC50 (H292 (lung)): 0.16 µM
EC50 (Ovarian (OAW42); Table 6D, another set of cell proliferation assay): 166 nM
IC50 (Ovarian (OAW42); Table 6E): 166 nM
mitophagy / removal of damaged mitochondria [1]: increases removal of damaged mictochondria
inhibition at 10 µM (CB1 (h)): < 1%
inhibition at 10 µM (COX2(h)): 1%
inhibition at 10 µM (D2S (h)): < 1%
inhibition at 10 µM (H2 (h)): < 1%
% Inhib NA+ Channel (Site2) (NA+ Channel (Site2)): 43%
inhibition at 10 µM (alpha 1A (h)): 16%
inhibition at 10 µM (delta (DOP) (h)): 9%
inhibition at 30 μM (CYP2D6): 6.87%
